Measured values taken from patent publication US20260125370A1, “SULFOXIMINE COMPOUNDS AS HISTONE DEACETYLASE 6 INHIBITOR, AND PHARMACEUTICAL COMPOSITION COMPRISING THE SAME” (CHONG KUN DANG PHARMACEUTICAL CORP., priority 2022, published 2026).

Tests used:
[1] = molecular target: T1, human recombinant HDAC1 (Homo sapiens, UniProt Q13547); test: HDAC1 enzyme activity inhibition (HDAC1 Fluorimetric Drug Discovery Assay Kit, in vitro); type: biochemical; settings: samples at 100, 1000 and 10000 nM
T1 construct: purchased Enzolifesciences BML-SE456
How it was run: (§1)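 Recombinant human HDAC1 or HDAC6 (0.3 μg) with Fluor de Lys-SIRT1 substrate at […], 60 min at 37 °C, then developer 30 min; fluorescence Ex 360/Em 460. Compounds at 100–10000 nM for HDAC1 and 0.1–1000 nM for HDAC6; IC50 calculated.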

[2] = molecular target: T2, human recombinant HDAC6 (Homo sapiens, UniProt Q9UBN7); test: HDAC6 enzyme activity inhibition (fluorimetric, in vitro); type: biochemical; settings: samples at 0.1, 1, 10, 100 and 1000 nM
T2 construct: purchased Calbiochem 382180
T2 sequence (Q9UBN7 1-1215): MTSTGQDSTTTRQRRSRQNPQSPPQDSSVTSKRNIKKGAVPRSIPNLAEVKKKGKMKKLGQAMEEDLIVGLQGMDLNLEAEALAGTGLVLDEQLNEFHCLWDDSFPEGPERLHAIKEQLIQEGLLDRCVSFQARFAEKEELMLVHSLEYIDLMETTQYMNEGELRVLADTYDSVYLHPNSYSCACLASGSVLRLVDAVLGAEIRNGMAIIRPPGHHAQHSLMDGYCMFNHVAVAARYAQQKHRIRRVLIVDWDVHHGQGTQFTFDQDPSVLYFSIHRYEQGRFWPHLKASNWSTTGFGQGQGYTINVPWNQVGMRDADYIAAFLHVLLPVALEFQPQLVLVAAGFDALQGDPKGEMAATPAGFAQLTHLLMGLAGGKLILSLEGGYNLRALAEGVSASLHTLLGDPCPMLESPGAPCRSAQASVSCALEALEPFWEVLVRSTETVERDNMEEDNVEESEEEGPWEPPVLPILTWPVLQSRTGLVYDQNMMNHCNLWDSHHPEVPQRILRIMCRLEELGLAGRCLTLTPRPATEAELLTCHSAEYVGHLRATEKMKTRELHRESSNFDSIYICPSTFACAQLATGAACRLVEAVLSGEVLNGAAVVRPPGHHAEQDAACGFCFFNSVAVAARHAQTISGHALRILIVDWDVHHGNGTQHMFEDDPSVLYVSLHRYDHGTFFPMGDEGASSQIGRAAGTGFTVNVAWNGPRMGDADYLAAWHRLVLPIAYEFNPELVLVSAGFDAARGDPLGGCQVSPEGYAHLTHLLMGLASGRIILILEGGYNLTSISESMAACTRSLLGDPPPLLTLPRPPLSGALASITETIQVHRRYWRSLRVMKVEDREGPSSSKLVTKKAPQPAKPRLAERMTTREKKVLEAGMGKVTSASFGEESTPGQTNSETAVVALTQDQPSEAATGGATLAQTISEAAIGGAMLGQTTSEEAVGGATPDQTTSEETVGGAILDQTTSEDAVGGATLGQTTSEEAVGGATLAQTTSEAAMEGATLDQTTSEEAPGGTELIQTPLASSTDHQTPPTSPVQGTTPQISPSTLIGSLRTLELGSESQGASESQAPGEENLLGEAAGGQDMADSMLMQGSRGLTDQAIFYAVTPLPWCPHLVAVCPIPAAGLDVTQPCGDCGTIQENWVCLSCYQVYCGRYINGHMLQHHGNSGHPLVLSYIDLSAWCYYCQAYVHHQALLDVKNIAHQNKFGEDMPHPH
How it was run: as §1

T1 sequence (Q13547 whole entry): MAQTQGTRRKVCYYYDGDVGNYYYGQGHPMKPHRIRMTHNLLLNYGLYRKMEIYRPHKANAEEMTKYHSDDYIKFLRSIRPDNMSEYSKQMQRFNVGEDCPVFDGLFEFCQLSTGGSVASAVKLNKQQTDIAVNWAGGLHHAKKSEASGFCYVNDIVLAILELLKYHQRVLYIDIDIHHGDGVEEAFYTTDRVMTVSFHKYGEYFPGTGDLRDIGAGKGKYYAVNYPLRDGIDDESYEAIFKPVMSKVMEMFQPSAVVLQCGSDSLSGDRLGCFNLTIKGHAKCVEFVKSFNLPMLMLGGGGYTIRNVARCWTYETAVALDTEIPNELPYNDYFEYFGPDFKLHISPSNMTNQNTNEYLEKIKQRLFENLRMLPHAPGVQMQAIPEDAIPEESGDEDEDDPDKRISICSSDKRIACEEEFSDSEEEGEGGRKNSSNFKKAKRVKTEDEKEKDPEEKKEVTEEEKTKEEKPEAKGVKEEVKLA

Structure (SMILES)	IC50 [1] [µM]	IC50 [2] [µM]
N=S1(=O)CCN(C(=O)N(Cc2ccc(-c3nnc(C(F)F)o3)cc2F)c2ccc3c(c2)CCC3)CC1 [Compound 28, N-(4-(5-(difluoromethyl)-1,3,4-oxadiazol-2-y1)-2-fluorobenzyl)-N-(2,3-dihydro-1H-inden-5-yl)-1-iminothiomorpholin-4-carboxamide 1-oxide]	> 10	0.0922
N=S1(=O)CCN(C(=O)N(Cc2ccc(-c3nnc(C(F)F)o3)cn2)c2ccc(F)c(F)c2)CC1 [Compound 7, N-((5-(5-(difluoromethyl)-1,3,4-oxadiazol-2-yl)pyridin-2-yl)methyl)-N-(3,4-difluorophenyl)-1-iminothiomorpholin-4-carboxamide 1-oxide]	> 10	0.0409
CS(=N)(=O)c1ccc(N(Cc2ccc(-c3nnc(C(F)F)o3)cc2F)C(=O)N2CCS(=N)(=O)CC2)cc1 (stereo not drawn) [Compound 11, N-(4-(5-(difluoromethyl)-1,3,4-oxadiazol-2-yl)-2-fluorobenzyl)-1-imino-N-(4-(S-methylsulfonimidoyl)phenyl)thiomorpholin-4-carboxamide 1-oxide]	> 10	1.42
N=S1(=O)CCN(C(=O)N(Cc2ccc(-c3nnc(C(F)F)o3)cc2F)c2ccc3c(c2)CCO3)CC1 [Compound 22, N-(4-(5-(difluoromethyl)-1,3,4-oxadiazol-2-y1)-2-fluorobenzyl)-N-(2,3-dihydrobenzofuran-5-yl)-1-iminothiomorpholin-4-carboxamide 1-oxide]	> 10	0.0752
N=S1(=O)CCN(S(=O)(=O)N(Cc2ccc(-c3nnc(C(F)F)o3)cn2)c2ccc(F)cc2)CC1 [Compound 76, N-[[5-[5-(difluoromethyl)-1,3,4-oxadiazol-2-yl]-2-pyridyl]methyl]-N-(4-fluorophenyl)-1-imino-1-oxo-1,4-thiazinan-4-sulfonamide]	> 10	0.0399
Cn1ccc2cc(N(Cc3ccc(-c4nnc(C(F)F)o4)cn3)C(=O)N3CCS(=N)(=O)CC3)ccc21 [Compound 14, N-((5-(5-(difluoromethyl)-1,3,4-oxadiazol-2-yl)pyridin-2-yl)methyl)-1-imino-N-(1-methyl-1H-indol-5-yl)thiomorpholin-4-carboxamide 1-oxide]	> 10	0.0944
CS(=N)(=O)C1CN(C(=O)N(Cc2ccc(-c3nnc(C(F)F)o3)cn2)c2cccc(F)c2)C1 (stereo not drawn) [Compound 90, N-[[5-[5-(difluoromethyl)-1,3,4-oxadiazol-2-yl]-2-pyridyl]methyl]-N-(3-fluorophenyl)-3-(methylsulfonimidoyl)azetidin-1-carboxamide]	> 10	0.0473
CS(=N)(=O)C1CN(C(=O)N(Cc2ccc(-c3nnc(C(F)F)o3)cc2F)c2cccc(F)c2)C1 (stereo not drawn) [Compound 91, N-[[4-[5-(difluoromethyl)-1,3,4-oxadiazol-2-yl]-2-fluoro-phenyl]methyl]-N-(3-fluorophenyl)-3-(methylsulfonimidoyl)azetidin-1-carboxamide]	> 10	0.046
N=S1(=O)CCN(S(=O)(=O)N(Cc2ccc(-c3nnc(C(F)F)o3)cc2F)c2cc(F)ccc2F)CC1 [Compound 69, N-[[4-[5-(difluoromethyl)-1,3,4-oxadiazol-2-yl]-2-fluoro-phenyl]methyl]-N-(2,5-difluorophenyl)-1-imino-1-oxo-1,4-thiazinan-4-sulfonamide]	> 10	0.124
Cn1ccc2cc(N(Cc3ccc(-c4nnc(C(F)F)o4)cc3F)C(=O)N3CCS(=N)(=O)CC3)ccc21 [Compound 10, N-(4-(5-(difluoromethyl)-1,3,4-oxadiazol-2-yl)-2-fluorobenzyl)-1-imino-N-(1-methyl-1H-indol-5-yl)thiomorpholin-4-carboxamide 1-oxide]	> 10	0.108
CC1CN(C(=O)N(Cc2ccc(-c3nnc(C(F)F)o3)cc2F)c2ccc(F)cc2)CC(C)S1(=N)=O (stereo not drawn) [Compound 65, N-[[4-[5-(difluoromethyl)-1,3,4-oxadiazol-2-yl]-2-fluoro-phenyl]methyl]-N-(4-fluorophenyl)-1-imino-2,6-dimethyl-1-oxo-1,4-thiazinan-4-carboxamide]	> 10	0.105
N=S1(=O)CCN(C(=O)N(Cc2ccc(-c3nnc(C(F)F)o3)cn2)c2ccc(F)cc2)CC1 [Compound 62, N-[[5-[5-(difluoromethyl)-1,3,4-oxadiazol-2-yl]-2-pyridyl]methyl]-N-(4-fluorophenyl)-1-imino-1-oxo-1,4-thiazinan-4-carboxamide]	> 10	0.0884

The remaining lines, values ahead:

IC50 [1] [µM]	IC50 [2] [µM]	Structure (SMILES)
> 10	0.0516	N=S1(=O)CCN(S(=O)(=O)N(Cc2ncc(-c3nnc(C(F)F)o3)cc2F)c2ccc(F)cc2)CC1 [Compound 77, N-[[5-[5-(difluoromethyl)-1,3,4-oxadiazol-2-yl]-3-fluoro-2-pyridyl]methyl]-N-(4-fluorophenyl)-1-imino-1-oxo-1,4-thiazinan-4-sulfonamide]
> 10	0.0469	CC(=O)N=S1(=O)CCN(C(=O)N(Cc2ccc(-c3nnc(C(F)F)o3)cn2)c2ccccc2)CC1 [Compound 52, 1-(acetylimino)-N-((5-(5-(difluoromethyl)-1,3,4-oxadiazol-2-yl)pyridin-2-yl)methyl)-N-phenylthiomorpholin-4-carboxamide 1-oxide]
> 10	0.0317	N=S1(=O)CCN(S(=O)(=O)N(Cc2ccc(-c3nnc(C(F)F)o3)cn2)c2cccc(Cl)c2)CC1 [Compound 71, N-(3-chlorophenyl)-N-[[5-[5-(difluoromethyl)-1,3,4-oxadiazol-2-yl]-2-pyridyl]methyl]-1-imino-1-oxo-1,4-thiazinan-4-sulfonamide]
> 10	0.0808	CN=S1(=O)CCN(C(=O)N(Cc2ccc(-c3nnc(C(F)F)o3)cc2F)c2ccccc2)CC1 [Compound 39, N-(4-(5-(difluoromethyl)-1,3,4-oxadiazol-2-yl)-2-fluorobenzyl)-1-(methylimino)-N-phenylthiomorpholin-4-carboxamide 1-oxide]
> 10	0.0806	Cc1cccc(N(Cc2ccc(-c3nnc(C(F)F)o3)cc2F)C(=O)N2CCS(=N)(=O)CC2)c1 [Compound 32, N-(4-(5-(difluoromethyl)-1,3,4-oxadiazol-2-y1)-2-fluorobenzyl)-1-imino-N-(m-tolyl)thiomorpholin-4-carboxamide 1-oxide]
> 10	0.0546	CC(=O)N=S1(=O)CCN(C(=O)N(Cc2ccc(-c3nnc(C(F)F)o3)cn2)c2ccc(F)c(F)c2)CC1 [Compound 30, 1-(acetylimino)-N-((5-(5-(difluoromethyl)-1,3,4-oxadiazol-2-yl)pyridin-2-yl)methyl)-N-(3,4-difluorophenyl)thiomorpholin-4-carboxamide 1-oxide]
> 10	0.0613	CS(=O)(=O)N=S1(=O)CCN(C(=O)N(Cc2ccc(-c3nnc(C(F)F)o3)cc2F)c2ccccc2)CC1 [Compound 37, N-(4-(5-(difluoromethyl)-1,3,4-oxadiazol-2-yl)-2-fluorobenzyl)-1-((methylsulfonyl)imino)-N-phenylthiomorpholin-4-carboxamide 1-oxide]
> 10	0.0939	N=S1(=O)CC2(CN(C(=O)N(Cc3ccc(-c4nnc(C(F)F)o4)cc3F)c3ccccc3)C2)C1 [Compound 92, N-[[4-[5-(difluoromethyl)-1,3,4-oxadiazol-2-yl]-2-fluoro-phenyl]methyl]-2-imino-2-oxo-N-phenyl-2lambda6-thia-6-azaspiro[3.3]heptan-6-carboxamide]
> 10	0.241	N=S1(=O)CCN(C(=O)N(Cc2cnc(-c3nnc(C(F)F)o3)cn2)c2cccc(F)c2)CC1 [Compound 81, N-[[5-[5-(difluoromethyl)-1,3,4-oxadiazol-2-yl]pyrazin-2-yl]methyl]-N-(3-fluorophenyl)-1-imino-1-oxo-1,4-thiazinan-4-carboxamide]
